Data published in publication PMC7244308 (Science Advances, 2020).
Read-outs that look alike come from different tables or passages of the source.

Key:
SLO [1] = target: T1, SLO (Streptococcus pyogenes serotype M1, UniProt P0C0I3); experiment: biochemical; format: binding
PFO = PFO (Clostridium perfringens, UniProt P0C2E9); experiment: biochemical; format: binding
ILY = ILY (Streptococcus intermedius, UniProt Q9LCB8); experiment: biochemical; format: binding
SLY D4 = SLY D4 (Streptococcus suis, UniProt Q55996); format: binding
SLY = SLY (Streptococcus suis, UniProt Q55996); format: binding
Ply = Ply (Streptococcus pneumoniae, UniProt Q7ZAK5); experiment: biochemical; format: binding
[2] = target: recombinant human I-domain (Homo sapiens, UniProt P11215); format: binding
LLO = LLO (Listeria monocytogenes serovar 1/2a, UniProt P13128); format: binding
SLO [3] = target: T1, SLO; format: cell-based

Chain of Ply (Q7ZAK5 whole entry, looked up): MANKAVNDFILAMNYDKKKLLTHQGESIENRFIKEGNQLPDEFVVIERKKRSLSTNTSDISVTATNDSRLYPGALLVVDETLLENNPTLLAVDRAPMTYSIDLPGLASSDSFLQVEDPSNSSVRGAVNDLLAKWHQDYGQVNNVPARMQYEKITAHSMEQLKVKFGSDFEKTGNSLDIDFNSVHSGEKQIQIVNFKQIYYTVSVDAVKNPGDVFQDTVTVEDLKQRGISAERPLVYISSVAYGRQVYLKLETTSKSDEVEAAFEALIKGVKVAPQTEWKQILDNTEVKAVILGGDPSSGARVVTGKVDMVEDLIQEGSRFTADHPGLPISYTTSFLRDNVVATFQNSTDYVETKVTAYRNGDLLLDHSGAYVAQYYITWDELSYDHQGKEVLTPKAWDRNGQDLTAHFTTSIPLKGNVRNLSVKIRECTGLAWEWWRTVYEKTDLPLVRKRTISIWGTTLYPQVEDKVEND
Chain of PFO (P0C2E9 29-500 limits assumed): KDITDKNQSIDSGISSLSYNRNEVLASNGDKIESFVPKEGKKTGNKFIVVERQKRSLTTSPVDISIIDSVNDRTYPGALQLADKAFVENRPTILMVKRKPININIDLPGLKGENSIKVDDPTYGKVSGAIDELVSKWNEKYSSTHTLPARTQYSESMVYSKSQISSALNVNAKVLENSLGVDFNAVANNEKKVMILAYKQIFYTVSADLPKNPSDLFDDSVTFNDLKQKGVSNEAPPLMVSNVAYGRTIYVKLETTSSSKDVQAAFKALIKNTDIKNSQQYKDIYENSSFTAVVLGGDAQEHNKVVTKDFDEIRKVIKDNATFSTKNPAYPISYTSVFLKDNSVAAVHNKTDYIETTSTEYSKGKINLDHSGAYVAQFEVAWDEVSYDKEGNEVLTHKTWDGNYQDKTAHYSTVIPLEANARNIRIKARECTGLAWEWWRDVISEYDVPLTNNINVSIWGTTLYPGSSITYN
T1 sequence (P0C0I3 34-571 limits assumed): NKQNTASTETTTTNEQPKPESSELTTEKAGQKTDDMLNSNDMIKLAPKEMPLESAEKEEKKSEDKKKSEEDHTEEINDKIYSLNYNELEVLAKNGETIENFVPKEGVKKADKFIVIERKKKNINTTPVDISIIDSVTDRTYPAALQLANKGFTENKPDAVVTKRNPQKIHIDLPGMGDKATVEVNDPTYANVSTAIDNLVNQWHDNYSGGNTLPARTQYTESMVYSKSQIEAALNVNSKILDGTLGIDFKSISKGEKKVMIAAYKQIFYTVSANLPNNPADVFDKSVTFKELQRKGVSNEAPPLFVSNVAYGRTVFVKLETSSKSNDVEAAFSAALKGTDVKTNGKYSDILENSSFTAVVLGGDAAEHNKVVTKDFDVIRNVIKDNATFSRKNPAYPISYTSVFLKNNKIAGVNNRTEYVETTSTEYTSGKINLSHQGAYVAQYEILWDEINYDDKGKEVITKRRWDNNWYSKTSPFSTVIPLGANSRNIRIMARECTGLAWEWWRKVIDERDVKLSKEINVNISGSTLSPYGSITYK
Chain of LLO (P13128 25-529 limits assumed): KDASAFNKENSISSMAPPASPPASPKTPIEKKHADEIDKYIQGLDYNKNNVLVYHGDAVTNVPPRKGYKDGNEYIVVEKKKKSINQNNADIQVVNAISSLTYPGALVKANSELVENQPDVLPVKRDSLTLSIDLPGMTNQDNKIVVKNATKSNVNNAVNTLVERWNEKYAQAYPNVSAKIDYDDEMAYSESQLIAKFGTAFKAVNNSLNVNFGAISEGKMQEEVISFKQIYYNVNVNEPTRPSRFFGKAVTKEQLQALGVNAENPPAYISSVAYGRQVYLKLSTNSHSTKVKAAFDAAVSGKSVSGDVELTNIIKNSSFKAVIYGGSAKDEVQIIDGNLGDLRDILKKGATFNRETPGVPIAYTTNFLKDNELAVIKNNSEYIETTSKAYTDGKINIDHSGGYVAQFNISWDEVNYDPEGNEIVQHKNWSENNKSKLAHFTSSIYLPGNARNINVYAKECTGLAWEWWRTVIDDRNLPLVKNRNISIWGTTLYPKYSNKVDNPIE
Chain of recombinant human I-domain (P11215 150-328): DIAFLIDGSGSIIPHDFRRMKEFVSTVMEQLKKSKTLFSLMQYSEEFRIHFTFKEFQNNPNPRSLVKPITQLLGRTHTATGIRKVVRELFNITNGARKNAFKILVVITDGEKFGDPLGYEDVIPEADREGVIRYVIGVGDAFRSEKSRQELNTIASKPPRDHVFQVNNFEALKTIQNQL

CC(=O)N[C@H]1[C@H](O[C@H]2[C@@H](O)[C@@H](CO)O[C@@H](O[C@H]3[C@H](O)[C@@H](O)C(O)O[C@@H]3CO)[C@@H]2O)O[C@H](CO)[C@@H](O[C@@H]2O[C@H](CO)[C@H](O)[C@H](O)[C@H]2O)[C@@H]1O (mixture of isomers) [LNnT, lacto-N-neotetraose]
Kd (SLO [1]): 0.93 nM
Kd (PFO): 2800 nM
Kd (ILY): 4900 nM

C[C@@H]1O[C@@H](O[C@H]2C(O)O[C@H](CO)[C@H](O)[C@@H]2O)[C@@H](O)[C@H](O)[C@@H]1O (stereo partly shown) [BGH di, blood group H antigen disaccharide]
Kd (SLO [1]): 603 nM
Kd (SLY D4): 26000 nM
Kd (SLY): 19000 nM

O=C[C@H](O)[C@@H](O)[C@H](O[C@@H]1O[C@H](CO)[C@@H](O)[C@H](O)[C@H]1O)[C@H](O)CO [Cellobiose]
Kd (PFO; KD): 34000 nM

CC(C)CCC[C@@H](C)[C@H]1CC[C@H]2[C@@H]3CC=C4C[C@@H](O)CC[C@]4(C)[C@H]3CC[C@]12C [Cholesterol]
Kd (SLO [1]; KD): 189 nM
Kd (PFO; KD): 296 nM
Kd (Ply; KD): 1000 nM

CC(=O)[C@H]1CC[C@H]2[C@@H]3CC=C4C[C@@H](O)CC[C@]4(C)[C@H]3CC[C@]12C [pregnenolone]
binding in SPR drug library screen (SLO [1]): binds
Kd (Ply): ~0.4 nM
binding in SPR drug library screen (Ply): binds

CC(=O)N[C@H]1[C@H]([C@H](O)[C@H](O)CO)O[C@@](O[C@H]2[C@@H](O)[C@@H](CO)O[C@@H](O[C@@H]([C@H](O[C@@H]3O[C@@H](C)[C@@H](O)[C@@H](O)[C@@H]3O)[C@H](C=O)NC(C)=O)[C@H](O)CO)[C@@H]2O)(C(=O)O)C[C@@H]1O [sLeX, sialyl-Lewis X]
Kd (SLO [1]; KD): 3100 nM
Kd (PFO; KD): 3900 nM
Kd (Ply; KD): 1300 nM
Kd (ILY; KD): 2800 nM

Ply: pneumolysin, CDC toxin from Streptococcus pneumoniae, recombinant His-tagged
Kd [2]: 22.3 nM

pregnenolone sulfate (sodium salt) [PS]
competition with cholesterol (competitive SPR) (SLO [1]): compete directly
competition with cholesterol (competitive SPR) (LLO): compete directly
effect on SLO hemolytic activity (SLO [3]): inhibit
competition with cholesterol (competitive SPR) (Ply): compete directly
